Each structure is given as a SMILES string.

In assay [1] the target is Sodium-dependent dopamine transporter (Homo sapiens, UniProt Q01959). Nature of the assay: DRUGMATRIX: Dopamine Transporter radioligand binding (ligand: [125I] RTI-55). It counts as cell membranes, CHO-K1, Membrane. The note with it: cho-k1; Not Active = under 50% inhibition at 10 µM.
Assay [2] in a line: DRUGMATRIX: Glutamate, Kainate radioligand binding (ligand: [3H] Kainic acid). In kind it is cell membranes, Rattus norvegicus, Wistar, Brain, Membrane. Particulars: Not Active = under 50% inhibition at 10 µM.
In assay [3] the target is T1, Polyunsaturated fatty acid lipoxygenase ALOX15 (Oryctolagus cuniculus, UniProt P12530).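 Also: inhibition of 15-lipoxygenase enzyme activity measured with linoleic acid as the substrate; in other assays of this panel Not Active means under 50% inhibition at 10 µM.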
T1 sequence (P12530 whole entry): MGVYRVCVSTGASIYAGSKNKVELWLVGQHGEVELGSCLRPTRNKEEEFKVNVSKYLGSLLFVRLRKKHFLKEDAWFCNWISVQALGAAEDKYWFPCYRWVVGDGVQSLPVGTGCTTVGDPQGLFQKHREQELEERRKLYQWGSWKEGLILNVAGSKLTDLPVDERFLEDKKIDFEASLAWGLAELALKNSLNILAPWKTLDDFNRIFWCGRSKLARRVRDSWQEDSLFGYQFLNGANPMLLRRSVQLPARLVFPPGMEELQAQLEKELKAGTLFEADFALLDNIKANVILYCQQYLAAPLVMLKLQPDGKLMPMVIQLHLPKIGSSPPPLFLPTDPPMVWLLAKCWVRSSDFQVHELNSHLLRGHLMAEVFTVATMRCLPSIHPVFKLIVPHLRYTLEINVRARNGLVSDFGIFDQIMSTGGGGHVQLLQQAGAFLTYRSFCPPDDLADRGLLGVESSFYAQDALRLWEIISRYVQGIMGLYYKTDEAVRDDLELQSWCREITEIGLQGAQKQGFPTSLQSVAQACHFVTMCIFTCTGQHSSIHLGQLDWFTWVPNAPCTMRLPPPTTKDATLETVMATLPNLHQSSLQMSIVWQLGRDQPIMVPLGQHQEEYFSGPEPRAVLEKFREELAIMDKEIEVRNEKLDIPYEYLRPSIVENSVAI
The assay can be described thus: biochemical. In kind it is tissue-based, Reticulocytes.

In assay [4] the target is T2, Muscarinic acetylcholine receptor M4 (Homo sapiens, UniProt P08173). Also: in other assays of this panel Not Active means under 50% inhibition at 10 µM.
T2 sequence (P08173 whole entry): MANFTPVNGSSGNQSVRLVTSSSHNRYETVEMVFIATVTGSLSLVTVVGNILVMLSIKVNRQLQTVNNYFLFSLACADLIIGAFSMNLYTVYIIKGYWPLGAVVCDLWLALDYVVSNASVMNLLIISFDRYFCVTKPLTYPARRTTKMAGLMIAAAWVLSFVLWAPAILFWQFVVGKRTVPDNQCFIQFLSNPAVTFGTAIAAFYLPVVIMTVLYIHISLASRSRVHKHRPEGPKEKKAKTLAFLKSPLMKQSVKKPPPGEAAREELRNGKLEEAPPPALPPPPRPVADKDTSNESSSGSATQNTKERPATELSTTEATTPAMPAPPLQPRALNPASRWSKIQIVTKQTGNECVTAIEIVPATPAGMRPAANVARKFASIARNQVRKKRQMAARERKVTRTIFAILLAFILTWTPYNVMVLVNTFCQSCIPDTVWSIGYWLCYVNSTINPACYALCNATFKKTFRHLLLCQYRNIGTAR
In kind it is cell membranes, CHO-K1, Membrane.

The target in a further assay is T3, Interstitial collagenase (Homo sapiens, UniProt P03956).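 Also: MMP-1 enzyme inhibition assay using a peptide substrate; in other assays of this panel Not Active means under 50% inhibition at 10 µM.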
T3 sequence (P03956 whole entry): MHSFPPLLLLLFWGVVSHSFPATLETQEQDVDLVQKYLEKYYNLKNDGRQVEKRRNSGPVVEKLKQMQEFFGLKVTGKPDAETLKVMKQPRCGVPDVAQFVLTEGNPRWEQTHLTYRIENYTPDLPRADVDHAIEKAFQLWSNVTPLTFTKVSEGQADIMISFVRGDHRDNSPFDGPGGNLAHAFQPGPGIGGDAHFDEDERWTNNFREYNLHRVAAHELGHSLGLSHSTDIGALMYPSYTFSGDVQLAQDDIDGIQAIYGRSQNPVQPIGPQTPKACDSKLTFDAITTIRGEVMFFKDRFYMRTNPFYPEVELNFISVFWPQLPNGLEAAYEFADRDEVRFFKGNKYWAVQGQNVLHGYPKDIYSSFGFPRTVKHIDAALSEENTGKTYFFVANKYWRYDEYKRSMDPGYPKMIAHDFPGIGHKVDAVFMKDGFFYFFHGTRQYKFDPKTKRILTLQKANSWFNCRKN
The assay can be described thus: biochemical. It counts as tissue-based, Rheumatoid synovial fibroblasts.

The target in a further assay is T4, Adenosine receptor A1 (Homo sapiens, UniProt P30542).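 Also: radioligand binding assay at the adenosine A1 receptor, with DPCPX serving as the labelled ligand; in other assays of this panel Not Active means under 50% inhibition at 10 µM.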
T4 sequence (P30542 whole entry): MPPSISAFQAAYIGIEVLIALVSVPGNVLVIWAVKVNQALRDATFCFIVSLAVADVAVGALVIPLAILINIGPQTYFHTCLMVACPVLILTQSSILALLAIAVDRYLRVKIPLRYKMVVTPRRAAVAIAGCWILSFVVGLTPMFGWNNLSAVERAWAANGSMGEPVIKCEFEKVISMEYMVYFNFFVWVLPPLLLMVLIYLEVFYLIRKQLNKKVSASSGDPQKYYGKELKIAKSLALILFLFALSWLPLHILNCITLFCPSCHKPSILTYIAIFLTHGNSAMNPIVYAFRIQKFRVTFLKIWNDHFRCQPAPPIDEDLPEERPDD
It counts as cell membranes, CHO, Membrane. The note with it: cho.

Chain of Sodium-dependent dopamine transporter (Q01959 whole entry): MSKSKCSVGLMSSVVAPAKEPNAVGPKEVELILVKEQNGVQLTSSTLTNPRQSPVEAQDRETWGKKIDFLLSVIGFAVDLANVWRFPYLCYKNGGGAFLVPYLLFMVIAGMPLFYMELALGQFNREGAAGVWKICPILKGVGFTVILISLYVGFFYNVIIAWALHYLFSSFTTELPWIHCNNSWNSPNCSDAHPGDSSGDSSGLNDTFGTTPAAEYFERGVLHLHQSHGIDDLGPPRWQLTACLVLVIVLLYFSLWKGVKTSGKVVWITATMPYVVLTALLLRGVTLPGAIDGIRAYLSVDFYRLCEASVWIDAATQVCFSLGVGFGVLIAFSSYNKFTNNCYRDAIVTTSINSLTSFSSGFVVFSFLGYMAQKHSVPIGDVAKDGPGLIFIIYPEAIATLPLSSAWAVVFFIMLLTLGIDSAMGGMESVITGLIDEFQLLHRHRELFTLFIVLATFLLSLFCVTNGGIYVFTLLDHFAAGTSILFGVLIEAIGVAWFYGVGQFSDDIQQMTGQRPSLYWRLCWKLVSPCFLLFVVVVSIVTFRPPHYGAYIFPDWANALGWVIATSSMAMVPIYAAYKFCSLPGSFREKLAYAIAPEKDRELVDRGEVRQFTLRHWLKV

The IC50 is the midpoint of a concentration-inhibition curve. Usually Ki stands for the equilibrium dissociation constant of an inhibitor or competing ligand from its target. Turning to `Cc1cnc(NC(=O)C2=C(O)c3ccccc3S(=O)(=O)N2C)s1` [MELOXICAM], the 50% inhibitory concentration (IC50) result (in assay [1]; in assay [2]; in assay [3] (reticulocytes); in assay [4] (cho-k1); against Interstitial collagenase; against Adenosine receptor A1) was “Not Active” each time. In addition, the Ki entry in assay [2] is “Not Active”.
As to `Nc1nc(N)c2nc(-c3ccccc3)c(N)nc2n1`, the IC50 result (in assay [1]; in assay [2]; in assay [3] (reticulocytes); in assay [4] (cho-k1); against Interstitial collagenase; against Adenosine receptor A1) was “Not Active” throughout. The inhibitory constant (Ki) entry in assay [2] was “Not Active”.
`CC(C)(C)NC[C@H](O)COc1cccc2c1CCCC2=O` [LEVOBUNOLOL]: the IC50 entry (in assay [1]; in assay [2]; in assay [3] (reticulocytes); in assay [4] (cho-k1); against Interstitial collagenase; against Adenosine receptor A1) was “Not Active” throughout. Also, in assay [2], the Ki result is “Not Active”.
For `Cc1[nH]c(=O)c(C#N)cc1-c1ccncc1` [MILRINONE], the IC50 entry (in assay [1]; in assay [2]; in assay [3] (reticulocytes); in assay [4] (cho-k1); against Interstitial collagenase; on Adenosine receptor A1) was “Not Active” in each case. Further, the Ki entry in assay [2] is on record as “Not Active”.
With `Cc1cn([C@H]2C=C[C@@H](CO)O2)c(=O)[nH]c1=O` [STAVUDINE], the IC50 result (in assay [1]; in assay [2]; in assay [3] (reticulocytes); in assay [4] (cho-k1); against Interstitial collagenase; on Adenosine receptor A1) was “Not Active” each time. The Ki entry in assay [2] is listed as “Not Active”.
For `CCOc1cc(N)c(Cl)cc1C(=O)NCC1CN(Cc2ccc(F)cc2)CCO1` (centres undefined) [MOSAPRIDE], the IC50 entry (in assay [1]; in assay [2]; in assay [3] (reticulocytes); in assay [4] (cho-k1); on Interstitial collagenase; on Adenosine receptor A1) was “Not Active” in each case. The Ki result in assay [2] is on record as “Not Active”.
For the molecule `C#C[C@]1(O)CC[C@H]2[C@@H]3[C@H](C)CC4=C(CCC(=O)C4)[C@H]3CC[C@@]21C` [TIBOLONE], the concentration for half-maximal inhibition (IC50) entry (in assay [1]; in assay [2]; in assay [3] (reticulocytes); in assay [4] (cho-k1); at Interstitial collagenase; against Adenosine receptor A1) was “Not Active” in each case. The inhibition constant (Ki) entry in assay [2] is given as “Not Active”.
Regarding `CC[C@H](C)[C@@H](CO[C@@H](Cc1ccccc1)C(=O)N[C@@H](CCS(C)(=O)=O)C(=O)OC(C)C)NC[C@@H](N)CS`, the half-maximal inhibitory concentration (IC50) entry (in assay [1]; in assay [2]; in assay [3] (reticulocytes); in assay [4] (cho-k1); at Interstitial collagenase; against Adenosine receptor A1) was “Not Active” each time. Also, the Ki result in assay [2] is “Not Active”.
On to `OC[C@@H](O)[C@@H](O)[C@H](O)[C@H](O)CO` [MANNITOL], for which the IC50 entry (in assay [1]; in assay [2]; in assay [3] (reticulocytes); in assay [4] (cho-k1); at Interstitial collagenase; against Adenosine receptor A1) was “Not Active” each time. Further, the Ki entry in assay [2] was “Not Active”.
In the case of `O=[As][O-].[Na+]` [SODIUM ARSENITE], the IC50 result (in assay [1]; in assay [2]; in assay [3] (reticulocytes); in assay [4] (cho-k1); on Interstitial collagenase; against Adenosine receptor A1) was “Not Active” throughout. Further, in assay [2], the Ki result is “Not Active”.
Turning to `Cc1cc2c(s1)Nc1ccccc1N=C2N1CCN(C)CC1` [OLANZAPINE], the half-maximal inhibitory concentration (IC50) result in assay [1] was “Not Active”; in assay [3] (read-out: IC50), 2770 nM; at Interstitial collagenase, “Not Active”; against Adenosine receptor A1 it was “Not Active”.
Take `Cc1ccc(Cl)c(Nc2ccccc2C(=O)O)c1Cl` [MECLOFENAMIC ACID]: the IC50 result (in assay [1]; in assay [2]; in assay [3] (reticulocytes); in assay [4] (cho-k1); on Interstitial collagenase; at Adenosine receptor A1) was “Not Active” each time. In addition, in assay [2], the inhibition constant Ki result is reported as “Not Active”.
Turning to `CCOC(=O)C1=C(C)NC(C)=C(C(=O)OCC)C1c1ccccc1/C=C/C(=O)OC(C)(C)C` [LACIDIPINE], the IC50 result (in assay [1]; in assay [2]; in assay [3] (reticulocytes); in assay [4] (cho-k1); at Interstitial collagenase; on Adenosine receptor A1) was “Not Active” throughout. The Ki entry in assay [2] is listed as “Not Active”.
With `CNCCCC12CCC(c3ccccc31)c1ccccc12` [MAPROTILINE], the IC50 result in assay [3] (reticulocytes) is “Not Active”; in assay [4] (read-out: IC50) it was 413 nM; against Interstitial collagenase it was “Not Active”; on Adenosine receptor A1, “Not Active”. Besides, in assay [4] (read-out: Ki), the inhibition constant Ki is 58 nM.
Regarding `O=C(c1ccccc1)c1ccc2n1CCC2C(=O)O` (centres undefined) [KETOROLAC], the IC50 entry (in assay [1]; in assay [2]; in assay [3] (reticulocytes); in assay [4] (cho-k1); at Interstitial collagenase; on Adenosine receptor A1) was “Not Active” each time. In addition, the Ki result in assay [2] was “Not Active”.
As to `CCN(CC)N=O` [N-NITROSODIETHYLAMINE], the IC50 result (in assay [1]; in assay [2]; in assay [3] (reticulocytes); in assay [4] (cho-k1); at Interstitial collagenase; on Adenosine receptor A1) was “Not Active” throughout. Besides, the Ki entry in assay [2] is “Not Active”.
Turning to `CO[C@@]12[C@H](COC(N)=O)C3=C(C(=O)C(C)=C(N)C3=O)N1C[C@@H]1N[C@@H]12` [MITOMYCIN], the IC50 entry (in assay [1]; in assay [2]; in assay [3] (reticulocytes); in assay [4] (cho-k1); against Interstitial collagenase; at Adenosine receptor A1) was “Not Active” throughout. The Ki entry in assay [2] is on record as “Not Active”.
Take `CN1C[C@H](CNC(=O)OCc2ccccc2)C[C@@H]2c3cccc4c3c(cn4C)C[C@H]21` [METERGOLINE]: the IC50 entry (in assay [2]; in assay [3] (reticulocytes); in assay [4] (cho-k1); at Interstitial collagenase; at Adenosine receptor A1) was “Not Active” throughout. Further, in assay [2], the Ki result is reported as “Not Active”.
Regarding `C[N+]1(C)[C@@H]2C[C@@H](OC(=O)[C@H](CO)c3ccccc3)C[C@H]1[C@@H]1O[C@@H]12.[Br-]` [METHSCOPOLAMINE BROMIDE], the IC50 result (in assay [1]; in assay [2]; in assay [3] (reticulocytes); at Interstitial collagenase; against Adenosine receptor A1) was “Not Active” throughout. For the same molecule, in assay [2], the inhibition constant Ki entry is on record as “Not Active”.
On to `CN(C)CCC=C1c2ccccc2COc2ccccc21` [DOXEPIN], for which the IC50 entry (in assay [3] (reticulocytes); against Interstitial collagenase; at Adenosine receptor A1) was “Not Active” each time.

(Values after ChEMBL document CHEMBL1909046, “DrugMatrix in vitro pharmacology data”.)
